Source: patent publication US7012078B2, “2-aminopyridines containing fused ring substituents” (Pfizer Inc., priority 1997, dated 2006)
Counter-ions that a name gives are not always drawn.

Row | melting point [°C] | SMILES
1 | 260 to 275 | CN1C2CCC1CC(Oc1ccc(-c3cccc(N)n3)c3ccccc13)C2 (centres unmarked) (as salt: hydrochloride)
2 | 220 to 228 | Nc1cccc(-c2ccc(OC3CN4CCC3CC4)c3ccccc23)n1 (centres unmarked) (as salt: hydrochloride)
3 | 65 to 90 | CN(CCOc1ccc(-c2cccc(N)n2)c2c1CCCC2)C(C)(C)C (as salt: hydrochloride) [Example 39, 6-{4-[2-(tert-Butyl-methyl-amino)-ethoxy]-5,6,7,8-tetrahydro-naphthalen-1-yl}-pyridin-2-ylamine]
4 | 60 to 80 | Nc1cccc(-c2ccc(OCCNCc3ccc4c(c3)OCO4)c3ccccc23)n1 (as salt: hydrochloride) [Example 14, 6-(4-{2-[(Benzo[1,3]dioxol-5-ylmethyl)-amino]-ethoxy}-naphthalen-1-yl)-pyridin-2-ylamine]
5 | 135 to 150 | Nc1cccc(-c2ccc(OCC3CCN3)c3ccccc23)n1 (centres unmarked) (as salt: salt) [Example 71, 6-[4-(Azetidin-2-ylmethoxy)-naphthalen-1-yl]-pyridin-2-ylamine]
